Test results published in patent EP1978972B1, “USE OF ALKYLGLUCOSIDE ESTERS AS BETA-DEFENSIN INDUCERS” (Pierre Fabre Dermo-Cosmétique, priority 2006, dated 2007).

Tested on: LL-37
Experiment: Induction of LL-37 gene expression in skin explant, systemic treatment, quantitative RT-PCR
Format: cell-based, human
Settings: 30 µg/ml
Source text: Il est connu de WO 97/45101 que les esters d'α-alkylglucoside peuvent être utilisés comme agent anti-microbien et/ou anti-fongique pour agir en tant que conservateur dans une composition, pour la préserver d'un développement microbien. […]

laurate de butylglucoside [αβ-LBG brut]
FI, LL-37 (2 h): 6 | FI, LL-37 (up to 24 h, in words): reste stable jusqu'à 24 h
